Results: the supplement of paper PMC10307832

What was measured:
Test in all cases: relative viability (nuclei count vs DMSO), 5 days (fraction); higher = more cells survive
[1] = compound: CC1=C(C(=O)N2C=CSC2=N1)CCN3CCC(=C(C4=CC=CC=C4)C5=CC=C(C=C5)F)CC3
Procedure, shortened: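 Viability was defined as treated-well nuclei divided by vehicle-well nuclei, with the median taken over replicate plates. Cells from lung cancer lines sat overnight at 37 °C in 1536-well plates, received five √10-spaced library-drug doses by pinning on vehicle-anchored plates, and grew 5 days without medium change before one-step fixation, permeabilisation and Hoechst staining, 4× imaging and MetaXpress nuclear counts. Only plates with control CV under 25% and at least one doubling were kept.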

[2] = compound: CC1=C(C(=O)N2C=CSC2=N1)CCN3CCC(=C(C4=CC=CC=C4)C5=CC=C(C=C5)F)CC3 + CC(=O)Nc1cccc(-n2c(=O)n(C3CC3)c(=O)c3c(Nc4ccc(I)cc4F)n(C)c(=O)c(C)c32)c1 [Trametinib] (partner 0.02 µM)
Procedure, shortened: (§1)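 Each reported value is a median over duplicate plates. It expresses relative viability: treated-well nuclei count divided by vehicle-well nuclei count. Lung cancer cell lines in 1536-well plates were dosed by pin tool a day after seeding, alone with one drug or with a fixed anchor-drug dose plus five library-drug doses (not always all listed) in √10 steps, and nuclei were counted after 5 days.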

[3] = compound: CC1=C(C(=O)N2C=CSC2=N1)CCN3CCC(=C(C4=CC=CC=C4)C5=CC=C(C=C5)F)CC3 + Cc1cc(Nc2cc(N3CCN(C)CC3)nc(Sc3ccc(NC(=O)C4CC4)cc3)n2)n[nH]1 [Tozasertib] (partner 0.1 µM)
Procedure, shortened: as §1

[4] = compound: CC1=C(C(=O)N2C=CSC2=N1)CCN3CCC(=C(C4=CC=CC=C4)C5=CC=C(C=C5)F)CC3 + NC(=O)Nc1cc(-c2cccc(F)c2)sc1C(=O)N[C@H]1CCCNC1 [AZD7762] (partner 0.2 µM)
Procedure, shortened: as §1

| Cell Line | relative viability ([1]; 0.08 µM) | relative viability ([1]; 0.253 µM) | relative viability ([1]; 0.8 µM) | relative viability ([1]; 2.53 µM) | relative viability ([1]; 8 µM) | relative viability ([2]; first compound 0.08 µM) | relative viability ([2]; first compound 0.253 µM) | relative viability ([2]; first compound 0.8 µM) | relative viability ([2]; first compound 2.53 µM) | relative viability ([2]; first compound 8 µM) | relative viability ([3]; first compound 0.08 µM) | relative viability ([3]; first compound 0.253 µM) | relative viability ([3]; first compound 0.8 µM) | relative viability ([3]; first compound 2.53 µM) | relative viability ([3]; first compound 8 µM) | relative viability ([4]; first compound 0.08 µM) | relative viability ([4]; first compound 0.253 µM) | relative viability ([4]; first compound 0.8 µM) | relative viability ([4]; first compound 2.53 µM) | relative viability ([4]; first compound 8 µM) |
| --- | --- | --- | --- | --- | --- | --- | --- | --- | --- | --- | --- | --- | --- | --- | --- | --- | --- | --- | --- | --- |
| LCLC-97TM1 | 0.921 | 1.07 | 1.02 | 0.874 | 0.91 | 0.183 | 0.18 | 0.23 | 0.172 | 0.151 | 0.266 | 0.166 | 0.193 | 0.237 | 0.182 | 0.348 | 0.246 | 0.288 | 0.285 | 0.228 |
| NCI-H1793 | 0.761 | 0.891 | 0.912 | 0.831 | 0.711 | 0.433 | 0.407 | 0.443 | 0.47 | 0.426 | 0.354 | 0.339 | 0.312 | 0.362 | 0.258 | 0.457 | 0.408 | 0.597 | 0.381 | 0.378 |
| EMC-BAC-2 | 1.01 | 0.798 | 0.908 | 1.12 | 0.796 | 1 | – | 0.931 | 0.926 | 0.858 | 0.192 | 0.278 | 0.275 | 0.278 | 0.261 | 1.18 | 0.93 | 1.01 | 1.13 | 1.01 |
| H3255 | 0.802 | 1.01 | 1.04 | 1.01 | 0.832 | 0.611 | 0.577 | 0.66 | 0.613 | 0.417 | 0.497 | 0.921 | 0.633 | 0.489 | 0.507 | 0.832 | 0.929 | 0.907 | 0.955 | 0.72 |
| NCI-H1355 | 0.961 | 1 | 1.04 | 0.981 | 0.757 | 0.49 | 0.444 | 0.407 | 0.408 | 0.421 | 0.623 | 0.544 | 0.52 | 0.496 | 0.532 | 1.02 | 0.846 | 0.822 | 0.815 | 0.595 |
| NCI-H1395 | 0.953 | 0.992 | 0.762 | 0.992 | 0.872 | 1.05 | 0.97 | 0.992 | 1 | 0.872 | 0.809 | 0.868 | 0.697 | 0.765 | 0.686 | 0.384 | 0.457 | 0.391 | 0.419 | 0.383 |
| PC-14 | 0.939 | 1.02 | 1.06 | 1.1 | 0.624 | 0.523 | 0.984 | 0.927 | 1.61 | 0.476 | 0.489 | 0.675 | 0.603 | 0.681 | 0.481 | 0.373 | 0.312 | 0.369 | 0.371 | 0.246 |
| 201T | 1.04 | 1.04 | 0.986 | 1.04 | 1.01 | 0.7 | 0.749 | 0.709 | 0.75 | 0.722 | 0.976 | 1.02 | 0.952 | 0.973 | 0.739 | 0.718 | 0.513 | 0.579 | 0.621 | 0.586 |
| NCI-H1944 | 0.969 | 0.94 | 0.96 | 0.958 | 0.751 | 0.382 | 0.373 | 0.436 | 0.368 | 0.335 | 0.26 | 0.273 | 0.226 | 0.224 | 0.204 | 0.482 | 0.491 | 0.461 | 0.469 | 0.43 |
| NCI-H647 | 0.996 | 0.894 | 0.877 | 1.09 | 0.462 | 0.388 | 0.609 | 0.541 | 0.612 | 0.249 | 0.267 | – | 0.437 | 0.105 | 0.141 | 0.558 | 0.449 | 0.37 | 0.426 | 0.234 |
| NCI-H1975 | 0.893 | 0.961 | 1 | 0.992 | 0.662 | 0.349 | 0.389 | 0.389 | 0.35 | 0.311 | 0.852 | 0.63 | 0.816 | 0.922 | 0.37 | 0.658 | 0.76 | 0.769 | 0.738 | 0.618 |
| NCI-H3122 | 0.951 | 1.04 | 1.01 | 1.12 | 0.715 | 0.214 | 0.247 | 0.229 | 0.235 | 0.229 | 0.315 | 0.351 | 0.392 | 0.491 | 0.324 | 0.86 | 1.05 | 0.983 | 1.14 | 0.59 |
| NCI-H460 | 0.923 | 0.956 | 1.06 | 1.04 | 0.567 | 0.129 | 0.132 | 0.129 | 0.124 | 0.129 | 0.272 | 0.57 | 0.392 | 0.409 | 0.252 | 0.769 | 0.604 | 0.712 | 0.6 | 0.482 |
| CAL-12T | 1.02 | 1.08 | 0.953 | 1.02 | 0.723 | 0.262 | 0.281 | 0.267 | 0.338 | 0.3 | 0.316 | 0.304 | 0.311 | 0.302 | 0.255 | 0.605 | 0.751 | 0.576 | 0.699 | 0.503 |
| PC-3 [JPC-3] | 0.987 | 0.939 | 1.04 | 1.08 | 0.839 | 0.645 | – | 0.834 | 0.822 | 0.664 | 0.924 | 0.821 | 0.91 | 0.988 | 0.66 | 0.768 | – | 0.815 | 0.78 | 0.736 |
| EKVX | 0.818 | 0.984 | 1.06 | 1.09 | 0.711 | 0.354 | 0.42 | 0.358 | 0.314 | 0.292 | 0.385 | 0.444 | 0.35 | 0.334 | 0.359 | 0.602 | 0.753 | 0.808 | 0.553 | 0.641 |
| NCI-H1651 | 0.823 | 0.968 | 0.976 | 1.01 | 0.72 | 0.783 | 0.915 | 0.837 | 0.866 | 0.712 | 0.689 | 0.611 | 0.683 | 0.793 | 0.379 | 0.438 | 0.467 | 0.472 | 0.467 | 0.304 |
| ChaGo-K-1 | 0.86 | 1.1 | 1.06 | 1.09 | 0.623 | 0.821 | 0.926 | 0.961 | 0.963 | 0.673 | 0.202 | 0.244 | 0.215 | 0.232 | 0.21 | 0.763 | 0.919 | 0.925 | 0.928 | 0.694 |
| LK-2 | 0.955 | 0.902 | 1.07 | 0.998 | 0.658 | 0.629 | 0.723 | 0.886 | 0.801 | 0.477 | 0.176 | 0.188 | 0.172 | 0.161 | 0.174 | 0.496 | 0.304 | 0.56 | 0.349 | 0.289 |
| NCI-H2126 | 0.966 | 0.991 | 1.05 | 1.04 | 0.914 | 0.591 | 0.514 | 0.58 | 0.607 | 0.466 | 0.889 | 0.913 | 0.846 | 0.986 | 0.739 | 1.07 | 0.961 | 1.03 | 1.04 | 0.705 |
| EPLC-272H | 0.832 | 0.914 | 0.864 | 1.03 | 0.743 | 0.379 | 0.295 | 0.305 | 0.281 | 0.255 | 0.225 | 0.25 | 0.269 | 0.203 | 0.515 | 0.45 | 0.198 | 0.182 | 0.211 | 0.179 |
| NCI-H2170 | 0.768 | 0.9 | 1.02 | 1 | 0.697 | 1.21 | 0.894 | 0.964 | 0.792 | 0.637 | 0.704 | 0.804 | 0.741 | 0.781 | 0.404 | 0.696 | 0.884 | 0.932 | 0.76 | 0.462 |
| NCI-H1648 | 0.797 | 0.802 | 0.802 | 0.706 | 0.883 | 0.437 | 0.378 | 0.427 | 0.465 | 0.417 | 0.391 | – | – | 0.392 | 0.525 | 0.722 | 0.628 | 0.727 | 0.667 | 0.443 |
| LXF-289 | 0.952 | 1.1 | 1.03 | 1.03 | 0.893 | 0.592 | 0.67 | 0.738 | 0.634 | 0.537 | 0.219 | 0.265 | 0.16 | 0.193 | 0.155 | 0.789 | 1.22 | 1.14 | 1.13 | 0.515 |
| NCI-H838 | 0.779 | 0.998 | 0.987 | 1.22 | 0.704 | 0.391 | 0.558 | 0.565 | 0.617 | 0.24 | 0.267 | 0.286 | 0.27 | 0.266 | 0.244 | 0.839 | 0.904 | 0.992 | 0.958 | 0.806 |
| NCI-H2347 | 0.964 | 1.07 | 1.04 | 1.05 | 0.775 | 0.271 | 0.267 | 0.262 | 0.352 | 0.309 | 0.439 | 0.554 | 0.525 | 0.471 | 0.487 | 0.603 | 0.692 | 0.773 | 0.895 | 0.553 |
| BEN | 0.886 | 1 | 1 | 1.07 | 0.856 | 0.798 | 1.13 | 1.06 | 1.16 | 0.944 | 0.48 | 0.493 | 0.493 | 0.529 | 0.551 | 0.732 | 0.677 | 0.638 | 0.638 | 0.651 |
